In the supplement of paper PMC10307832:

How the values were obtained:
Assay in all cases: relative viability (nuclei count vs DMSO), 5 days (fraction); higher = more cells survive
[1] = compound: C1/C(=C\C2=CC=CS2)/C(=O)/C(=C/C3=CC=CS3)/C1 + CC(=O)Nc1cccc(-n2c(=O)n(C3CC3)c(=O)c3c(Nc4ccc(I)cc4F)n(C)c(=O)c(C)c32)c1 [Trametinib] (partner 0.02 µM)
Outline: (§1)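 For relative viability, nuclei counts in treated wells were divided by those in vehicle wells. Lung cancer cell lines had been pin-tool dosed in 1536-well plates the day after seeding and cultured for 5 days, then fixed and stained in one step (final 0.05% Triton X-100, 1% formaldehyde, 1 ug/ml Hoechst) and imaged at 4×. Doses were one drug alone or a fixed anchor-drug dose plus five library-drug doses (not always all listed) in √10 steps, and values are duplicate-plate medians.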

[2] = compound: C1/C(=C\C2=CC=CS2)/C(=O)/C(=C/C3=CC=CS3)/C1 + CS(=O)(=O)N1CCN(Cc2cc3nc(-c4cccc5[nH]ncc45)nc(N4CCOCC4)c3s2)CC1 [Pictilisib] (partner 1 µM)
Outline: as §1

TPCA-1 + Linsitinib = compound: C1=CC(=CC=C1C2=CC(=C(S2)NC(=O)N)C(=O)N)F [TPCA-1] + C[C@]1(O)C[C@@H](c2nc(-c3ccc4ccc(-c5ccccc5)nc4c3)c3c(N)nccn32)C1 [Linsitinib] (partner 1 µM)
Outline: as §1

Lestaurtinib + Foretinib = compound: C[C@]12O[C@H](C[C@]1(O)CO)n1c3ccccc3c3c4c(c5c6ccccc6n2c5c31)CNC4=O [Lestaurtinib] + COc1cc2c(Oc3ccc(NC(=O)C4(C(=O)Nc5ccc(F)cc5)CC4)cc3F)ccnc2cc1OCCCN1CCOCC1 [Foretinib] (partner 0.25 µM)
Outline: as §1

UMC-11
relative viability ([1]; first compound 0.2 µM): 0.69
relative viability ([1]; first compound 0.6325 µM): 0.737
relative viability ([1]; first compound 2 µM): 0.675
relative viability ([1]; first compound 6.325 µM): 0.671
relative viability ([1]; first compound 20 µM): 0.715
relative viability ([2]; first compound 0.2 µM): 0.829
relative viability ([2]; first compound 0.6325 µM): 0.962
relative viability ([2]; first compound 2 µM): 0.934
relative viability ([2]; first compound 20 µM): 0.758
relative viability (TPCA-1 + Linsitinib; first compound 0.04 µM): 1.03
relative viability (TPCA-1 + Linsitinib; first compound 0.1265 µM): 1
relative viability (TPCA-1 + Linsitinib; first compound 0.4 µM): 1.04
relative viability (TPCA-1 + Linsitinib; first compound 1.265 µM): 0.918
relative viability (TPCA-1 + Linsitinib; first compound 4 µM): 0.615
relative viability (Lestaurtinib + Foretinib; first compound 0.005 µM): 1.03
relative viability (Lestaurtinib + Foretinib; first compound 0.01581 µM): 0.891
relative viability (Lestaurtinib + Foretinib; first compound 0.05 µM): 0.46
relative viability (Lestaurtinib + Foretinib; first compound 0.1581 µM): 0.273
relative viability (Lestaurtinib + Foretinib; first compound 0.5 µM): 0.175
